# Source: patent US6569881B1, “Substituted benzimidazole, the production thereof and the use thereof as means against parasitic protozoa” (Bayer Aktiengesellschaft, priority 1999, dated 2003)
# Columns and labels:
# Format in all cases: in vivo, chicken chicks
# [1] = tested on: Eimeria acervulina, Eimeria maxima and Eimeria tenella; experiment: Cage experiments coccidiosis/chicks, mixed experimental infection; details: for dropping scores / lesion score: grade 0 to 6
# Procedure: (§1) The efficacy of the compounds according to the invention can be confirmed, for example, in cage experiments using the following experimental arrangement, in which the animals are treated with the respective individual components and with the mixtures of the individual components.
# (§2) An active compound-containing feed is prepared in such a way that the required amount of active compound is thoroughly mixed with a nutritionally balanced animal feed, e.g. with the chick feed indicated below.
# (§3) 8 to 12 day-old male chicken chicks raised under coccidea-free conditions (e.g. LSL Brinkschulte/Senden) receive the compounds according to the invention (test substances) from 3 days before (day -3) the infection (=a.i.) until 8 (9) days after the infection (=p.i.) with the feed in the concentration indicated in ppm. Three animals are kept in each cage. Per dose, one to a number of groups of this type are employed. Infection is carried out by means of a stomach tube directly into the crop using approximately 100,000 sporulated oocysts of Eimeria acervulina and with in each case approximately 30,000 oocysts of E. maxima and 40,000 sporulated oocysts of E. tenella. These are highly virulent strains. The exact infectious dose is adjusted such that if possible one of three experimentally infected untreated chicks dies due to infection. For the assessment of the efficacy, the following criteria are taken into consideration: weight increase from the start of the experiment to the end of the experiment, death rate due to infection, macroscopic assessment of the faeces with respect to diarrhoea and excretion of blood on days 5 and 7 p.i. (grade 0 to 6), macroscopic grade of the intestinal mucous membrane, in particular of the cecums (grade 0 to 6) and the oocyst excretion and also the proportion (in %) of the oocysts sporulating within 24 hours. The number of oocysts in the faeces was determined with the aid of the McMaster counting chamber (see Engelbrecht and coworkers “Parasitologische Arbeitsmethoden in Medizin und Veterinärmedizin, [Parasitological working methods in medicine and veterinary medicine] Akademie-Verlag, Berlin (1965)). The individual findings are related to the untreated noninfected control groups and an overall grade is calculated (cf. A. Haberkorn (1986), pp. 263 to 270 in Research in Avian Coccidiosis ed L. R. McDougald, L. P. Joyner, P. L. Long Proceedings of the Georgia Coccidiosis Conference Nov, 18-20, 1985 Athens/Ga. USA).
# In the column “ppm”, the concentration of the active compound employed in the feed is indicated in ppm.
# In the column “mortality”, the percentage of the animals which have died is indicated under % and the number of the animals which have died/animals employed in the experiment is indicated under n.
# In the column “weight % of not inf. control”, the ratio of the weight of the treated animals to the weight of the noninfected control group is indicated.
# (§4) In the columns “dropping scores”, “lesion score” and “oocyst control”, individual details of the action are given.
# In the column “% efficacy”, the overall rating is assessed; 0% means no action, 100% means complete action.
# Eimeria maxima = experiment: Cage experiments coccidiosis/chicks, Eimeria maxima part of the mixed infection; details: for Efficacy against Eimeria maxima (grade): second symbol of cell; for Efficacy against Eimeria maxima (grade): key: 2 = complete action; 1 = weak action; 0 = inactive; D = death
# Procedure: as §1, §2, §3, §4
# Eimeria acervulina = experiment: Cage experiments coccidiosis/chicks, Eimeria acervulina part of the mixed infection; details: for Efficacy against Eimeria acervulina (grade): first symbol of cell; for Efficacy against Eimeria acervulina (grade): key: 2 = complete action; 1 = weak action; 0 = inactive; D = death
# Procedure: as §1, §2, §3, §4
# Eimeria tenella = experiment: Cage experiments coccidiosis/chicks, Eimeria tenella part of the mixed infection; details: for Efficacy against Eimeria tenella (grade): third symbol of cell; for Efficacy against Eimeria tenella (grade): key: 2 = complete action; 1 = weak action; 0 = inactive; D = death
# Procedure: as §1, §2, §3, §4
SMILES,% efficacy tot. ([1]; 5 ppm in feed),mortality % ([1]; 5 ppm in feed),mortality n (died/employed) ([1]; 5 ppm in feed),oocyst in % of inf. control tot. ([1]; 5 ppm in feed),weight % of not inf. control ([1]; 5 ppm in feed),dropping scores ([1]; 5 ppm in feed),lesion score ([1]; 5 ppm in feed),% efficacy tot. ([1]; 10 ppm in feed),mortality % ([1]; 10 ppm in feed),mortality n (died/employed) ([1]; 10 ppm in feed),oocyst in % of inf. control tot. ([1]; 10 ppm in feed),weight % of not inf. control ([1]; 10 ppm in feed),dropping scores ([1]; 10 ppm in feed),lesion score ([1]; 10 ppm in feed),mortality % ([1]; 25 ppm in feed),mortality n (died/employed) ([1]; 25 ppm in feed),dropping scores ([1]; 25 ppm in feed),oocyst in % of inf. control max. (Eimeria maxima; 5 ppm in feed),oocyst in % of inf. control max. (Eimeria maxima; 10 ppm in feed),Efficacy against Eimeria maxima (grade) (Eimeria maxima; Dose 5 ppm),other results
Cc1oc(=O)oc1Cn1c(C(F)(F)F)nc2c(C(F)(F)F)cc(C(F)(F)F)cc21 [Example 28],75%,0%,0/3,1%,85%,6,1,91%,0%,0/3,0%,82%,0,0,100%,3/3,0,2%,0%,2,Efficacy against Eimeria maxima (grade) (Eimeria maxima; Dose 10 ppm): 2; oocyst in % of inf. control ac. (Eimeria acervulina; 5 ppm in feed): 2%; oocyst in % of inf. control ac. (Eimeria acervulina; 10 ppm in feed): 0%; Efficacy against Eimeria acervulina (grade) (Eimeria acervulina; Dose 5 ppm): 2; Efficacy against Eimeria acervulina (grade) (Eimeria acervulina; Dose 10 ppm): 2; oocyst in % of inf. control ten. (Eimeria tenella; 5 ppm in feed): 0%; oocyst in % of inf. control ten. (Eimeria tenella; 10 ppm in feed): 0%; Efficacy against Eimeria tenella (grade) (Eimeria tenella; Dose 5 ppm): 2; Efficacy against Eimeria tenella (grade) (Eimeria tenella; Dose 10 ppm): 2
Cc1oc(=O)oc1Cn1c(C(F)(F)F)nc2cc(Cl)c(C(F)(F)F)cc21 [Example 18],7%,0%,0/3,>100%,33%,6,6,5%,0%,0/3,>100%,30%,6,6,0%,0/3,1,>100%,0%,0,% efficacy tot. ([1]; 25 ppm in feed): 75%; oocyst in % of inf. control tot. ([1]; 25 ppm in feed): 1%; weight % of not inf. control ([1]; 25 ppm in feed): 82%; lesion score ([1]; 25 ppm in feed): 3; oocyst in % of inf. control max. (Eimeria maxima; 25 ppm in feed): 20%; Efficacy against Eimeria maxima (grade) (Eimeria maxima; Dose 10 ppm): 0; Efficacy against Eimeria maxima (grade) (Eimeria maxima; Dose 25 ppm): 1; oocyst in % of inf. control ac. (Eimeria acervulina; 5 ppm in feed): >100%; oocyst in % of inf. control ac. (Eimeria acervulina; 10 ppm in feed): >100%; oocyst in % of inf. control ac. (Eimeria acervulina; 25 ppm in feed): 0%; Efficacy against Eimeria acervulina (grade) (Eimeria acervulina; Dose 5 ppm): 0; Efficacy against Eimeria acervulina (grade) (Eimeria acervulina; Dose 10 ppm): 0; Efficacy against Eimeria acervulina (grade) (Eimeria acervulina; Dose 25 ppm): 2; oocyst in % of inf. control ten. (Eimeria tenella; 5 ppm in feed): >100%; oocyst in % of inf. control ten. (Eimeria tenella; 10 ppm in feed): >100%; oocyst in % of inf. control ten. (Eimeria tenella; 25 ppm in feed): 1%; Efficacy against Eimeria tenella (grade) (Eimeria tenella; Dose 5 ppm): 0; Efficacy against Eimeria tenella (grade) (Eimeria tenella; Dose 10 ppm): 0; Efficacy against Eimeria tenella (grade) (Eimeria tenella; Dose 25 ppm): 2
Cc1oc(=O)oc1Cn1c(C(F)(F)F)nc2cc(C(F)(F)F)c(Cl)cc21 [Example 19],7%,0%,0/3,>100%,52%,4,6,66%,0%,0/3,5%,75%,3,4,0%,0/3,6,>100%,13%,0,% efficacy tot. ([1]; 25 ppm in feed): 7%; oocyst in % of inf. control tot. ([1]; 25 ppm in feed): >100%; weight % of not inf. control ([1]; 25 ppm in feed): 56%; lesion score ([1]; 25 ppm in feed): 6; oocyst in % of inf. control max. (Eimeria maxima; 25 ppm in feed): >100%; Efficacy against Eimeria maxima (grade) (Eimeria maxima; Dose 10 ppm): 1; Efficacy against Eimeria maxima (grade) (Eimeria maxima; Dose 25 ppm): 0; oocyst in % of inf. control ac. (Eimeria acervulina; 5 ppm in feed): >100%; oocyst in % of inf. control ac. (Eimeria acervulina; 10 ppm in feed): 5%; oocyst in % of inf. control ac. (Eimeria acervulina; 25 ppm in feed): >100%; Efficacy against Eimeria acervulina (grade) (Eimeria acervulina; Dose 5 ppm): 0; Efficacy against Eimeria acervulina (grade) (Eimeria acervulina; Dose 10 ppm): 2; Efficacy against Eimeria acervulina (grade) (Eimeria acervulina; Dose 25 ppm): 0; oocyst in % of inf. control ten. (Eimeria tenella; 5 ppm in feed): >100%; oocyst in % of inf. control ten. (Eimeria tenella; 10 ppm in feed): 5%; oocyst in % of inf. control ten. (Eimeria tenella; 25 ppm in feed): >100%; Efficacy against Eimeria tenella (grade) (Eimeria tenella; Dose 5 ppm): 0; Efficacy against Eimeria tenella (grade) (Eimeria tenella; Dose 10 ppm): 1; Efficacy against Eimeria tenella (grade) (Eimeria tenella; Dose 25 ppm): 0
